# What was measured:
# A549 = test: Cytotoxicity against human A549 cells; type: functional; settings: read-out: ED50 (the source's name)
# HT-29 = test: Cytotoxicity against human HT-29 cells; type: functional; settings: read-out: ED50 (the source's name)
# [1] = Cytotoxicity against human KBMRI cells; type: functional; settings: read-out: ED50 (the source's name)
# Artemia = test: Toxicity in brine shrimp; type: organism-based; settings: in vivo
# P388 = test: In vivo cytotoxicity against mouse P388 cells relative to control; type: functional
# [2] = tested on: Agrobacterium tumefaciens; test: Antitumor activity against Agrobacterium tumefaciens-induced crown gall tumors in potato tubers by potato disk test; type: functional
Compound,EC50 (A549),EC50 (HT-29),EC50 [1],LC50 (Artemia),T/C (P388),inhibition (INH) [2]
Cc1cc2c(c(O)c1O)C(=O)c1c(O)cccc1C2=O,3.1 µg/mL,2.8 µg/mL,5.7 µg/mL,–,–,–
COc1cc(O)c2c(c1)COC2=O,> 100 µg/mL,28 µg/mL,> 100 µg/mL,> 1000 ppm,–,–
Cc1cc(O)c2c(c1)C(=O)c1cc(O)cc(O)c1C2=O [EMODIN],4.2 µg/mL,> 10 µg/mL,6 µg/mL,35 ppm,127%,40%
CC(=O)c1c(C)cc2cccc(O)c2c1O [NEPODIN],31 µg/mL,36.7 µg/mL,36.7 µg/mL,105 ppm,–,–
